biological target: 5-hydroxytryptamine receptor 6 (Homo sapiens, UniProt P50406); experiment: Displacement of [3H]-lysergic acid diethylamine from human recombinant 5-HT6 receptor
Sequence (P50406 whole entry): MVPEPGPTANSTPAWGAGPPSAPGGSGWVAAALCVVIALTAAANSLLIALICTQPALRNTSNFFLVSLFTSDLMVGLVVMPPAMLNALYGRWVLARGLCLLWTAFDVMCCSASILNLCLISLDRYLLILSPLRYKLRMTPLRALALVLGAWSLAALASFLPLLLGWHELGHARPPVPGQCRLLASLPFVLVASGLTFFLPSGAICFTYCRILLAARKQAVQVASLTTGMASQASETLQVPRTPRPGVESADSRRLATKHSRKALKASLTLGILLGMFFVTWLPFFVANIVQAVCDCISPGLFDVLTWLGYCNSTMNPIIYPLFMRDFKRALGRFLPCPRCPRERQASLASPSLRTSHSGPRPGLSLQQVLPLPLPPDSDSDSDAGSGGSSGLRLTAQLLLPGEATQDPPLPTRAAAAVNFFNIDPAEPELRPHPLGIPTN

| Ki [µM] | Compound |
| --- | --- |
| < 0.02 | COCc1cccc(NS(=O)(=O)c2ccc(OC)c(N3CCCNCC3)c2)c1 |
| < 0.1 | COCc1cccc(N(C)S(=O)(=O)c2ccc(OC)c(N3CCNCC3)c2)c1 |
| < 0.01 | COCc1ccccc1NS(=O)(=O)c1ccc(OC)c(N2CCN(C)CC2)c1 |
| < 0.1 | COCc1ccccc1NS(=O)(=O)c1ccc(C)c(N2CCN(C)CC2)c1 |
| < 0.01 | COc1ccc(S(=O)(=O)Nc2cccc(COCC(F)(F)F)c2)cc1N1CCNCC1 |
| < 0.01 | CCOc1ccc(S(=O)(=O)Nc2ccccc2COC)cc1N1CCNCC1 |
| < 0.01 | CCOc1ccc(S(=O)(=O)Nc2cccc(COC)c2)cc1N1CCN(C)CC1 |
| < 0.01 | CCOc1ccc(S(=O)(=O)Nc2cccc(COC)c2)cc1N1CCNCC1 |
| < 0.01 | COCc1cccc(NS(=O)(=O)c2ccc(OC)c(N3CCN(C)CC3)c2)c1 |
| < 0.01 | CCOCc1cccc(NS(=O)(=O)c2ccc(OC)c(N3CCNCC3)c2)c1 |
| < 0.1 | COCc1cccc(NS(=O)(=O)c2ccc(C)c(N3CCN(C)CC3)c2)c1 |
| < 0.01 | CCOc1ccc(S(=O)(=O)Nc2ccccc2COC)cc1N1CCN(C)CC1 |

| Compound | Ki [µM] |
| --- | --- |
| COCc1cccc(NS(=O)(=O)c2ccc(C)c(N3CCNCC3)c2)c1 | < 0.01 |
| COCc1ccccc1NS(=O)(=O)c1ccc(C)c(N2CCNCC2)c1 | < 0.1 |
| COCc1cccc(NS(=O)(=O)c2ccc(OC)c(N3CCNCC3)c2)c1 | < 0.01 |
| COCc1ccc(NS(=O)(=O)c2ccc(OC)c(N3CCNCC3)c2)cc1 | < 0.1 |
| COc1ccc(S(=O)(=O)Nc2cccc(C(C)OC)c2)cc1N1CCNCC1 (stereo not drawn) | < 0.02 |
| COCc1ccccc1NS(=O)(=O)c1ccc(OC)c(N2CCNCC2)c1 | < 0.01 |

Source: ChEMBL document CHEMBL2150919, “Benzenesulfonyl and Benzenesulfonamide as Modulators of the 5-HT6 Receptor: Patent Highlight” (ACS Med Chem Lett, 2012)
